{"source": "patent US20200323802A1", "about": "“SUPPORTING IMMUNOMODULATORY AGENT” (Flexopharm Brain GMBH & Go. KG, priority 2015, published 2020)", "key": {"[1]": {"test_system": "experimental autoimmune encephalomyelitis (EAE)", "assay": "EAE mouse model, daily clinical assessment on 5-point scale (SEM)", "format": "in vivo", "experimental": "(§1) Mice kept under standardized conditions were fed on a normal diet enriched with long-chain fatty acids (30.9% lauric acid) and with 200 μl of propionate daily administered orally. The propionate was given either at the time of disease induction (DI) or at the onset of the disease (OD).\n(§2) For the induction of EAE the mice were anesthetized and administered two subcutaneous injections of a 50 μl emulsion applied to the left and right tail basis and comprising a total of 200 μg MOG35-55 (myelin oligodendrocyte glycoprotein) and 200 μg Freund's adjuvant (CFA) with 4 mg/ml of M. tuberculosis. Pertussis toxin ([…]) was given intraperitoneally on day 0 and day 2 after the induction. The clinical assessment took place on a daily basis using a 5-point scale (SEM). The assessment was as follows:\n0=normal 1=Tail paralysis impairing raising 2=Gait ataxia 3=Paraparesis of hind legs\nMice showing SEM 4 or 5 were excluded."}, "[2]": {"test_system": "experimental autoimmune encephalomyelitis (EAE)", "assay": "EAE mouse model: relative axonal density, demyelination of the white matter, CD3+ cells", "format": "in vivo", "details": "propionic acid (DI or OD), FIG. 3", "experimental": "FIG. 3: is a graph showing the effect of propionic acid diet initiated at the time of disease induction (DI) or at the time of onset of symptoms (OD) compared to a diet control group on relative axonal density, demyelination in the white matter, and CD3+ cells in the mouse EAE model.\nas §1, §2\nThe influence of the propionic acid on the relative axonal density, the demyelination of the white matter, and the number of CD3+-cells is shown in FIG. 3."}, "TGFβ1": {"test_system": "TGFβ1", "assay": "Gene expression profiling of signature cytokines in EAE mice", "format": "in vivo, mouse", "details": "propionic acid-fed mice with EAE", "description": "(§3) In mice treated with propionic acid, the number of regulatory T cells increases with the changes that occur in the microbiota (CD4+CD25+ Foxp3+ Treg)."}, "IL-10": {"test_system": "IL-10", "assay": "Gene expression profiling of signature cytokines in EAE mice", "format": "in vivo, mouse", "details": "propionic acid-fed mice with EAE", "description": "as §3"}, "Foxp3": {"test_system": "Foxp3", "assay": "Gene expression profiling of signature cytokines in EAE mice", "format": "in vivo, mouse", "details": "propionic acid-fed mice with EAE", "description": "as §3"}, "CD4+CD25+ Foxp3+ Treg": {"test_system": "CD4+CD25+ Foxp3+ Treg", "assay": "Levels of CD4+CD25+ Foxp3 regulatory T cells in mouse EAE model", "format": "in vivo", "experimental": "FIG. 4: is a graph showing the effect of propionic acid diet initiated at the time of disease induction (DI) compared to a control group on levels of CD4+CD25+ Foxp3 cells in mouse EAE model\nFIG. 5 is a graph showing the effect of lauric acid diet (250 μM and 500 μM) initiated at the time of disease induction (DI) compared to a control group on levels of CD4+CD25+ Foxp3 cells in mouse EAE model,\nas §1\nas §2, with “(SEM).” for “(SEM). The assessment was as follows:”"}, "Treg cells": {"test_system": "Treg cells", "assay": "Treg cells in MS patients before and after 14 days of treatment with sodium propionate plus MS drug", "format": "in vivo, human", "details": "pooled comparison group, patient-specific dose of the MS drug together with sodium propionate 2×0.5 g daily, before vs after 14 days, FIG. 6", "description": "The disproportionate increase in the amount of Treg cells signifies a corresponding reduction in the autoimmune response."}, "intestinal microbiome": {"test_system": "intestinal microbiome", "assay": "Influence on composition of the intestinal microbiome", "format": "in vivo", "details": "present in mice", "description": "The inventive acids, in particular propionic acid and butyric acid have an influence on the intestinal physiology and the microbiome present there. In this way, they have an impact on the composition of the microbiome."}, "TH1 and TH17 cells": {"test_system": "TH1 and TH17 cells", "assay": "Th1/Th17 cells in small bowel and central nervous system in EAE mice", "format": "in vivo", "details": "mouse EAE, lauric acid enriched diet", "description": "Moreover, the aliphatic chain length of the carboxylic acids also affects the […] autoimmunity as well as the regulatory response of Treg in an in vivo mouse model. […] In this context, MS and psoriasis are to be regarded as largely similar."}}, "note": "“Also recorded” adds a separate entry of the source."}
{"compound": "CCC(=O)O", "note": "[propionic acid]", "values": [{"measurement": "course of induced disease versus control group", "setting": "[1]; MS mouse model (EAE), propionic acid given prophylactically", "value": "significant improvement"}, {"measurement": "disease progression (SEM) versus control group", "setting": "[1]; mouse EAE, propionic acid given orally on the day of onset of disease (OD), FIG. 2", "value": "significantly less favorable disease progression than the control group"}, {"measurement": "relative axonal density, demyelination of the white matter and number of CD3+ cells versus control group", "setting": "[2]", "value": "significant improvement"}, {"measurement": "TGFβ1 gene expression", "setting": "TGFβ1", "value": "increased values; also recorded: significant increase"}, {"measurement": "IL-10 gene expression", "setting": "IL-10", "value": "increased values; also recorded: significant increase"}, {"measurement": "Foxp3 gene expression", "setting": "Foxp3", "value": "increased values; also recorded: significant increase"}, {"measurement": "CD4+CD25+ Foxp3 cells versus control group", "setting": "CD4+CD25+ Foxp3+ Treg; propionic acid administration (DI), FIG. 4", "value": "increases; also recorded: significant increase"}]}
{"compound": "glatiramer acetate", "values": [{"measurement": "increase in number of Treg cells by a factor", "setting": "Treg cells", "value": 1.1}]}
{"compound": "CCCCCCCCCCCC(=O)O", "note": "[lauric acid]", "values": [{"measurement": "number of Provotellaceae and some families of Phylum Bacteroidetes", "setting": "intestinal microbiome", "value": "reduce significantly"}, {"measurement": "CD4+CD25+ Foxp3 cells versus control value", "setting": "CD4+CD25+ Foxp3+ Treg; lauric acid enriched diet (250 μM and 500 μM), concentration dependent, FIG. 5", "value": "reduction"}, {"measurement": "TH1 and TH17 cells in the small bowel", "setting": "TH1 and TH17 cells", "value": "significant reduction"}, {"measurement": "Th1/Th17 in the central nervous system", "setting": "TH1 and TH17 cells", "value": "accumulation"}]}
{"compound": "CCCCCCCCc1ccc(CCC(N)(CO)CO)cc1", "note": "[fingolimod]", "values": [{"measurement": "increase in number of Treg cells by a factor", "setting": "Treg cells", "value": 1.1}]}
{"compound": "C/C(O)=C(\\C#N)C(=O)Nc1ccc(C(F)(F)F)cc1", "note": "[teriflunomide]", "values": [{"measurement": "increase in number of Treg cells by a factor", "setting": "Treg cells", "value": 1.1}]}
